Assay results as given in patent publication US9243225B2, “Methods of obtaining cell populations enriched with desired cells” (HADASIT MEDICAL RESEARCH SERVICES & DEVELOPMENT LIMITED, priority 2010, dated 2016).

How the values were obtained:
[1] = tested on: tumor-forming cells in transplanted hESC-derived cell preparations; test: Transplantation of paclitaxel-treated differentiated hESC into 6-OH dopamine-lesioned (Parkinsonian) rats; format: in vivo, rat
Experimental: 6-Hydroxydopamine (8 μg/rat) was stereotaxically injected (in a 4 μL solution) into the right substantia nigra of male Sprague-Dawley rats weighing 250-280 g; coordinates of injection: P=4.8, L=1.7, H=−8.6 from bregma. Fourteen days after 6-hydroxydopamine injection, rats were selected for transplantation if they had >350 rotations per hour after s.c. injection of apomorphine ([…]) (apomorphine being injected after 14 days) and, if 2 days later (after apomorphine injection) they also had >360 (mean 520±38) rotations per hour after i.p. injection of D-amphetamine (4 mg/kg).
Two to five days later (after the D-amphetamine injection), differentiated hESC that were induced according to the above specified protocols, either paclitaxel-treated or control-treated (DMSO), were detached with collagenase and were transplanted, 400,000 cells in 12 μL/animal along two tracts per striatum (coordinates: antero-medial tract, A=1, L=2, H=−7.5 to −4; posterio-lateral tract, A−P=0, L=3.5, H=−7.5 to −4.5). All rats received daily i.p. injections of 10 mg cyclosporine A per kg (Sandimmune; Novartis, Basel, Switzerland).
Rats were euthanized by overdose of pentobarbital and perfused with 4% paraformaldehyde saline. Serial 8 μm coronal frozen sections were prepared. […]

[2] = tested on: hES1-derived mixed culture of neurons, neural precursors/progenitors (NPs) and undifferentiated cells; test: Paclitaxel treatment of hESC-derived differentiating neural cultures (morphology, immunostaining); format: cell-based, human
Experimental: hES1 colonies grown on HFF feeders in DMEM supplemented with knockout (KO) serum replacement, PenStrep, non-essential amino-acids and glutamine (Invitrogen, USA), were enzymatically detached by collagenase. Intact colonies were transferred to non-adhesive culture plates to form neurospheres in NSC medium (DMEM-F12 medium, N2, B27, PenStrep and Glutamine) supplemented with noggin (Peprotech Asia, Rehovot, Israel) and 20 ng/ml bFGF. Spheres were grown for 3-5 weeks in suspension, collected, triturated and plated on 10 μg laminin/poly-D-lysine-coated coverslips in NSC medium supplemented with FGF8 and SHH for 6-8-days. At this stage, cells were treated with the appropriate concentrations of paclitaxel for 18-24 hours. Paclitaxel was then removed and cells were allowed to recuperate and continue with the differentiation process for additional 6-8 days in NSC medium with BDNF, GDNF, TGFβ3, NT4, cAMP, ascorbic acid.
Alternatively, cells at the end of the differentiation process—the cells are grown as spheres in suspension for 3-5 weeks and 2 more weeks as adherent culture: 1 week FGF8/SHH+1 week factors) are subjected to paclitaxel treatment.
Paclitaxel was added to cells at 2 ranges of concentrations of 0.2-20 nM and 100-500 nM. Cells are incubated at 37° C., in 5% CO2, 5% O2. Incubation times vary between 2 hours and 48 hours.

`CC(=O)O[C@H]1C(=O)[C@@]2(C)[C@H]([C@H](OC(=O)c3ccccc3)[C@]3(O)C[C@H](OC(=O)[C@H](O)[C@@H](NC(=O)c4ccccc4)c4ccccc4)C(C)=C1C3(C)C)[C@]1(OC(C)=O)CO[C@@H]1C[C@@H]2O` [paclitaxel] was tested, and the “tumor development after transplantation of treated cells” value ([1]; cell preparations treated with 20-50 nM paclitaxel, 9 animals, 5-8 weeks post transplantation, all 6 controls with untreated cells developed large tumors) was “none developed tumors”, the “tyrosine hydroxylase (dopaminergic marker) expression of grafted paclitaxel-treated cells” value ([1]; grafted cells marked by human nuclear antigen in rat striatum, FIGS. 4A-4C) was “express tyrosine hydroxylase” and the “effect on mature cells with typical neuronal morphology” value ([2]; after treatment with paclitaxel, FIG. 1C) was “unaffected by the treatment”. For the same compound, the “effect on undifferentiated cells and early neural progenitors that form rosette structures” value ([2]; after treatment with paclitaxel, FIGS. 1A-1C) was “undergo apoptosis”, the “β-III tubulin expressing cells (neuronal marker) in culture” value ([2]; mixed culture of neurons and NPs after paclitaxel treatment, FIG. 2C) was “enriched for β-III tubulin expressing cells” and the “nestin-positive cells (NP marker) in culture” value ([2]; mixed culture of neurons and NPs after paclitaxel treatment, FIG. 2D) was “reduced number of nestin-positive cells”.
